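Cultured in 96-well plates, cells were exposed to test compound for 48 hours across five concentrations. TGI: total growth inhibition.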
Tests used:
Test in all cases: DTP human tumour cell line panel, 48 h
SF-268 CNS = system: SF-268 CNS
SF-295 CNS = system: SF-295 CNS
SK-MEL-5 melanoma = system: SK-MEL-5 melanoma
A549 NSCLC = system: A549 NSCLC
T-47D breast = system: T-47D breast
A498 renal = system: A498 renal
K-562 leukemia = system: K-562 leukemia
MALME-3M melanoma = system: MALME-3M melanoma
U251 CNS = system: U251 CNS
NCI/ADR-RES ovarian = system: NCI/ADR-RES ovarian
TK-10 renal = system: TK-10 renal
MDA-N = system: MDA-N
NCI-H23 lung = system: NCI-H23 lung
HCC-2998 colon = system: HCC-2998 colon
HCT-116 colon = system: HCT-116 colon
RXF 393 renal = system: RXF 393 renal
ACHN renal = system: ACHN renal
HOP-62 NSCLC = system: HOP-62 NSCLC
HS 578T breast = system: HS 578T breast
786-0 renal = system: 786-0 renal
OVCAR-3 ovarian = system: OVCAR-3 ovarian
DU-145 prostate = system: DU-145 prostate
HCT-15 colon = system: HCT-15 colon
PC-3 prostate = system: PC-3 prostate
SK-MEL-28 melanoma = system: SK-MEL-28 melanoma
BT-549 breast = system: BT-549 breast
M14 melanoma = system: M14 melanoma
HT29 colon = system: HT29 colon
SNB-19 CNS = system: SNB-19 CNS
EKVX NSCLC = system: EKVX NSCLC
NCI-H460 lung = system: NCI-H460 lung
NCI-H522 lung = system: NCI-H522 lung
SW-620 colon = system: SW-620 colon
MDA-MB-435 = system: MDA-MB-435
KM12 colon = system: KM12 colon
IGROV1 ovarian = system: IGROV1 ovarian
UACC-257 melanoma = system: UACC-257 melanoma
UACC-62 melanoma = system: UACC-62 melanoma
NCI-H226 lung = system: NCI-H226 lung
SN12C renal = system: SN12C renal
OVCAR-4 ovarian = system: OVCAR-4 ovarian
MOLT-4 leukemia = system: MOLT-4 leukemia
CAKI-1 renal = system: CAKI-1 renal
MDA-MB-231 breast = system: MDA-MB-231 breast
OVCAR-8 ovarian = system: OVCAR-8 ovarian
HOP-92 NSCLC = system: HOP-92 NSCLC
SK-MEL-2 melanoma = system: SK-MEL-2 melanoma
SR leukemia = system: SR leukemia
CCRF-CEM leukemia = system: CCRF-CEM leukemia
OVCAR-5 ovarian = system: OVCAR-5 ovarian
LOX IMVI melanoma = system: LOX IMVI melanoma
UO-31 renal = system: UO-31 renal
SNB-75 CNS = system: SNB-75 CNS
HL-60(TB) leukemia = system: HL-60(TB) leukemia
MCF7 breast = system: MCF7 breast
SF-539 CNS = system: SF-539 CNS
SK-OV-3 ovarian = system: SK-OV-3 ovarian
COLO 205 colon = system: COLO 205 colon
RPMI-8226 leukemia = system: RPMI-8226 leukemia

Measured: TGI

Cc1ccc(S(=O)(=O)OC2C(C3COC(C)(C)O3)OC3OC(C)(C)OC32)cc1 (stereo not given)
> 100 µM: SF-268 CNS | SF-295 CNS | SK-MEL-5 melanoma | A549 NSCLC | T-47D breast | A498 renal | K-562 leukemia | MALME-3M melanoma | U251 CNS | NCI/ADR-RES ovarian | TK-10 renal | MDA-N | NCI-H23 lung | HCC-2998 colon | HCT-116 colon | RXF 393 renal | ACHN renal | HOP-62 NSCLC | HS 578T breast | 786-0 renal | OVCAR-3 ovarian | DU-145 prostate | HCT-15 colon | PC-3 prostate | SK-MEL-28 melanoma | BT-549 breast | M14 melanoma | HT29 colon | SNB-19 CNS | EKVX NSCLC | NCI-H460 lung | NCI-H522 lung | SW-620 colon | MDA-MB-435 | KM12 colon | IGROV1 ovarian | UACC-257 melanoma | UACC-62 melanoma | NCI-H226 lung | SN12C renal | OVCAR-4 ovarian | MOLT-4 leukemia | CAKI-1 renal | MDA-MB-231 breast | OVCAR-8 ovarian | HOP-92 NSCLC | SK-MEL-2 melanoma | SR leukemia | CCRF-CEM leukemia | OVCAR-5 ovarian | LOX IMVI melanoma | UO-31 renal | SNB-75 CNS

N/N=C1/CCCc2nonc21
> 100 µM: SF-268 CNS | SF-295 CNS | HL-60(TB) leukemia | SK-MEL-5 melanoma | A549 NSCLC | T-47D breast | K-562 leukemia | MALME-3M melanoma | U251 CNS | NCI/ADR-RES ovarian | TK-10 renal | MDA-N | NCI-H23 lung | HCC-2998 colon | HCT-116 colon | RXF 393 renal | ACHN renal | HOP-62 NSCLC | HS 578T breast | 786-0 renal | OVCAR-3 ovarian | DU-145 prostate | HCT-15 colon | PC-3 prostate | SK-MEL-28 melanoma | M14 melanoma | HT29 colon | MCF7 breast | EKVX NSCLC | NCI-H460 lung | SF-539 CNS | SW-620 colon | MDA-MB-435 | KM12 colon | SK-OV-3 ovarian | IGROV1 ovarian | UACC-257 melanoma | UACC-62 melanoma | COLO 205 colon | SN12C renal | OVCAR-4 ovarian | MOLT-4 leukemia | CAKI-1 renal | MDA-MB-231 breast | OVCAR-8 ovarian | HOP-92 NSCLC | SK-MEL-2 melanoma | SR leukemia | CCRF-CEM leukemia | OVCAR-5 ovarian | LOX IMVI melanoma | RPMI-8226 leukemia

— PubChem BioAssay (NCI)
